From US10544130B2, “Metallo-beta-lactamase inhibitors” (priority 2015, dated 2020)

Experiments:
[1] = tested on: Escherichia coli expressing NDM-1 (CLB30005, CLB30016); format: cell-based; settings: with imipenem 1 μg/ml; 95% inhibition of bacterial growth
How it was run: (§1)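 Growth read by absorbance after 22–24 h at 35 °C in CAMHB, with test compound alone or combined with 1 μg/ml imipenem. Inocula came from overnight 35 °C blood-agar colonies, set to a defined OD600 and diluted 1:100. Value is the inhibitor concentration giving synergy.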

[2] = tested on: Klebsiella pneumoniae expressing VIM-1 (IHMA599644); format: cell-based; settings: with imipenem 1 μg/ml; 95% inhibition of bacterial growth
How it was run: as §1

[3] = tested on: Serratia marcescens expressing IMP-1 (CL5741); format: cell-based; settings: with imipenem 1 μg/ml; 95% inhibition of bacterial growth
How it was run: as §1

[4] = tested on: Pseudomonas aeruginosa PAO1 MB9798 (efflux+, IMP-1); settings: ratio MITC95 PA 9798/MITC95 PA 9799; imipenem at 2 μg/mL
How it was run: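 Isogenic PAO1 pair (efflux+ MB9798, efflux− MB9799, both IMP-1) tested by microbroth MIC with fixed imipenem and/or ceftazidime, usually at CLSI breakpoint, plus fixed class A/C inhibitor against AmpC. MBL inhibitor titrated; concentration restoring susceptibility recorded and fold difference between strains taken as efflux extent.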

Row | Compound | Escherichia coli (NDM-1) MITC95 [1] [µM] | Klebsiella pneumoniae (VIM-1) MITC95 [2] [µM] | Serratia marcescens (IMP-1) MITC95 [3] [µM] | Efflux ratio [4]
1 | NCCNS(=O)(=O)c1ccc(-c2cccc(NC[C@H](O)CN)c2)c(-c2nn[nH]n2)c1S(N)(=O)=O [Example 351, (R)-3′-((3-amino-2-hydroxypropyl)amino)-N4-(2-aminoethyl)-2-(2H-tetrazol-5-yl)-[1,1′-biphenyl]-3,4-disulfonamide] | 0.7813 | 1.563 | 1.563 | 2.00
2 | NCCNS(=O)(=O)c1ccc(-c2cccc(NC[C@H](N)CO)c2)c(-c2nn[nH]n2)c1S(N)(=O)=O [Example 350, (S)-3′-((2-amino-3-hydroxypropyl)amino)-N4-(2-aminoethyl)-2-(2H-tetrazol-5-yl)-[1,1′-biphenyl]-3,4-disulfonamide] | 0.7813 | 0.7813 | 0.7813 | 1.00
3 | NC[C@@H](CO)NS(=O)(=O)c1ccc(-c2cccc(N)n2)c(-c2nn[nH]n2)c1S(N)(=O)=O [Example 382, (S)—N1-(1-amino-3-hydroxypropan-2-yl)-4-(6-aminopyridin-2-yl)-3-(2H-tetrazol-5-yl)benzene-1,2-disulfonamide] | 1.563 | 3.125 | 1.563 | 1.00
4 | Cc1ccc(-c2ccc(S(=O)(=O)NCCN)c(S(N)(=O)=O)c2-c2nn[nH]n2)c2nc(N)[nH]c12 [Example 329, 4-(2-Amino-7-methyl-1H-benzo[d]imidazol-4-yl)-N1-(2-aminoethyl)-3-(2H-tetrazol-5-yl)benzene-1,2-disulfonamide] | 1.563 | 1.563 | 1.563 | 2.00
5 | Nc1cc(-c2ccc(S(=O)(=O)N[C@@H]3CCNC3)c(S(N)(=O)=O)c2-c2nn[nH]n2)ccn1 [Example 288, (R)-4-(2-aminopyridin-4-yl)-N1-(pyrrolidin-3-yl)-3-(2H-tetrazol-5-yl)benzene-1,2-disulfonamide] | 0.7813 | 1.563 | 1.563 | 2.00
6 | NCCNS(=O)(=O)c1ccc(-c2cccc3[nH]c(CCN)nc23)c(-c2nn[nH]n2)c1S(N)(=O)=O [Example 337, N1-(2-aminoethyl)-4-(2-(2-aminoethyl)-1H-benzo[d]imidazol-4-yl)-3-(2H-tetrazol-5-yl)benzene-1,2-disulfonamide] | 0.7813 | 0.7813 | 0.7813 | 2.00
7 | NCCN1CC[C@@H](NS(=O)(=O)c2ccc(-c3cccc4[nH]c(N)nc34)c(-c3nn[nH]n3)c2S(N)(=O)=O)C1 [Example 246, (R)-4-(2-amino-1H-benzo[d]imidazol-4-yl)-N1-(1-(2-aminoethyl)pyrrolidin-3-yl)-3-(2H-tetrazol-5-yl)benzene-1,2-disulfonamide] | 0.7813 | 1.563 | 1.563 | 2.00
8 | NCCn1nc2cccc(-c3ccc(S(=O)(=O)N[C@@H]4CCNC4)c(S(N)(=O)=O)c3-c3nn[nH]n3)c2n1 [Example 279, (R)-4-(2-(2-aminoethyl)-2H-benzo[d][1,2,3]triazol-4-yl)-N1-(pyrrolidin-3-yl)-3-(2H-tetrazol-5-yl)benzene-1,2-disulfonamide] | 0.7813 | 0.7813 | 0.7813 | 1.00
9 | NCCNS(=O)(=O)c1ccc(-c2cccc(SC[C@@H](O)CN)c2)c(-c2nn[nH]n2)c1S(N)(=O)=O [Example 357, (S)-5′-(3-amino-2-hydroxypropylthio)-N4-(2-aminoethyl)-2-(2H-tetrazol-5-yl)biphenyl-3,4-disulfonamide] | 0.7813 | 0.7813 | 0.7813 | 2.00
10 | NCCNS(=O)(=O)c1ccc(-c2cccc3[nH]c(CN)nc23)c(-c2nn[nH]n2)c1S(N)(=O)=O [Example 343] | 0.7813 | 0.7813 | 0.7813 | 1.00
11 | NCc1nc2c(-c3ccc(S(=O)(=O)N[C@@H](CN)CO)c(S(N)(=O)=O)c3-c3nn[nH]n3)cccc2[nH]1 [Example 379, (S)—N^1-(1-amino-3-hydroxypropan-2-yl)-4-(2-(aminomethyl)-1H-benzo[d]imidazol-4-yl)-3-(2H-tetrazol-5-yl)benzene-1,2-disulfonamide] | 1.563 | 1.563 | 1.563 | 2.00
12 | NCCNS(=O)(=O)c1ccc(-c2cccc(SC[C@H](O)CN)c2)c(-c2nn[nH]n2)c1S(N)(=O)=O [Example 356, (R)-3′-((3-amino-2-hydroxypropyl)thio)-N4-(2-aminoethyl)-2-(2H-tetrazol-5-yl)-[1,1′-biphenyl]-3,4-disulfonamide] | 0.7813 | 0.7813 | 0.7813 | 2.00
13 | Cn1nc2cccc(-c3ccc(S(=O)(=O)N[C@@H]4CCNC4)c(S(N)(=O)=O)c3-c3nn[nH]n3)c2n1 [Example 281, (R)-4-(2-methyl-2H-benzo[d][1,2,3]triazol-4-yl)-N1-(pyrrolidin-3-yl)-3-(2H-tetrazol-5-yl)benzene-1,2-disulfonamide] | 1.563 | 3.125 | 1.563 | 2.00
14 | NCCNS(=O)(=O)c1ccc(C2=CC(N)CCC2)c(-c2nn[nH]n2)c1S(N)(=O)=O (stereo not drawn) [Example 338, 5′-Amino-N4-(2-aminoethyl)-2-(2H-tetrazol-5-yl)-2′,3′,4′,5′-tetrahydro-[1,1′-biphenyl]-3,4-disulfonamide] | 1.563 | 1.563 | 1.563 | 4.00
15 | NCCNS(=O)(=O)c1ccc(-c2cccc3[nH]c([C@@H](N)CN)nc23)c(-c2nn[nH]n2)c1S(N)(=O)=O [Example 336, (S)—N1-(2-aminoethyl)-4-(2-(1,2-diaminoethyl)-1H-benzo[d]imidazol-4-yl)-3-(2H-tetrazol-5-yl)benzene-1,2-disulfonamide] | 1.563 | 3.125 | 3.125 | 2.00
16 | Cn1nnc2c(-c3ccc(S(=O)(=O)N[C@H]4CCNC4)c(S(N)(=O)=O)c3-c3nn[nH]n3)cccc21 [Example 293, (S)-4-(1-methyl-1H-benzo[d][1,2,3]triazol-4-yl)-N1-(pyrrolidin-3-yl)-3-(2H-tetrazol-5-yl)benzene-1,2-disulfonamide] | 3.125 | 3.125 | 3.125 | 
17 | NCC(CN)NS(=O)(=O)c1ccc(-c2cccc(-c3c[nH]c(N)n3)c2)c(-c2nn[nH]n2)c1S(N)(=O)=O [Example 435, 3′-(2-amino-1H-imidazol-4-yl)-N4-(1,3-diaminopropan-2-yl)-2-(2H-tetrazol-5-yl)-[1,1′-biphenyl]-3,4-disulfonamide] | 1.563 | 3.125 | 3.125 | 
18 | NCCNS(=O)(=O)c1ccc(-c2cccc(NC(=O)[C@@H](N)CN)c2)c(-c2nn[nH]n2)c1S(N)(=O)=O [Example 453, (S)-2,3-Diamino-N-(4′-(N-(2-aminoethyl)sulfamoyl)-3′-sulfamoyl-2′-(2H-tetrazol-5-yl)-[1,1′-biphenyl]-3-yl)propanamide] | 1.563 | 3.125 | 3.125 | 
19 | NCCNC(=O)c1cc(Cl)cc(-c2ccc(S(=O)(=O)N[C@@H]3CCNC3)c(S(N)(=O)=O)c2-c2nn[nH]n2)c1N [Example 450, (R)-2-Amino-N-(2-aminoethyl)-5-chloro-4′-(N-(pyrrolidin-3-yl)sulfamoyl)-3′-sulfamoyl-2′-(2H-tetrazol-5-yl)-[1,1′-biphenyl]-3-carboxamide] | 1.563 | 1.563 | 1.563 | 
20 | NCC(=O)NC1C=C(c2ccc(S(=O)(=O)N[C@@H]3CCNC3)c(S(N)(=O)=O)c2-c2nn[nH]n2)CCC1 (stereo partly drawn) [Example 269, 2-Amino-N-(4′-(N—((R)-pyrrolidin-3-yl)sulfamoyl)-3′-sulfamoyl-2′-(2H-tetrazol-5-yl)-3,4,5,6-tetrahydro-[1,1′-biphenyl]-3-yl)acetamide] | 1.563 | 3.125 | 1.563 | 
21 | C[C@H](N)Cc1nc2c(-c3ccc(S(=O)(=O)N[C@@H]4CCNC4)c(S(N)(=O)=O)c3-c3nn[nH]n3)cccc2[nH]1 [Example 441, 4-(2-((S)-2-Aminopropyl)-1H-benzo[d]imidazol-4-yl)-N1-((R)-pyrrolidin-3-yl)-3-(2H-tetrazol-5-yl)benzene-1,2-disulfonamide] | 1.563 | 1.563 | 1.563 | 
